# Starred links: 1 amine or outer side, 2 acyl side, 3 side chain; linkers in the order of their positions; H or OH if unused. Positions of bridges follow the written chain, without caps; N, C: chain ends. Non-standard residues stand in square brackets, D forms with d. Residues, ends and D or L forms follow the SMILES beside them. Groups on a side chain read outwards from the residue. *: point of attachment. Trp(7-Me) = Cc1cccc2c(C[C@H](N)C(=O)O)c[nH]c12; C18 diacid = O=C(O)CCCCCCCCCCCCCCCCC(=O)*; C16 diacid = O=C(O)CCCCCCCCCCCCCCC(=O)*; γGlu = O=C(O)[C@H](CCC(=O)[*:2])N[*:1]; 2Nal = N[C@@H](Cc1ccc2ccccc2c1)C(=O)O; AEF = NCCOc1ccc(C[C@H](N)C(=O)O)cc1; PEG6 = NCCOCCOCCOCCOCCOCCOCCC(=O)O; Stearoyl = CCCCCCCCCCCCCCCCCC(=O)*; Palmitoyl = CCCCCCCCCCCCCCCC(=O)*; 3Pal = N[C@@H](Cc1cccnc1)C(=O)O; Pen = CC(C)(S)[C@H](N)C(=O)O; Thp = NC1(C(=O)O)CCOCC1; AEEA = NCCOCCOCC(=O)O; Sar = CNCC(=O)O
# Target: T1, IL-23R (Homo sapiens, UniProt Q5VWK5)
# T1 construct: HEK293 cells containing IL-23R, IL-12RP31 and a firefly luciferase reporter gene driven by a STAT-inducible promoter (Promega); host or cells: HEK293
# T1 sequence (Q5VWK5 24-629): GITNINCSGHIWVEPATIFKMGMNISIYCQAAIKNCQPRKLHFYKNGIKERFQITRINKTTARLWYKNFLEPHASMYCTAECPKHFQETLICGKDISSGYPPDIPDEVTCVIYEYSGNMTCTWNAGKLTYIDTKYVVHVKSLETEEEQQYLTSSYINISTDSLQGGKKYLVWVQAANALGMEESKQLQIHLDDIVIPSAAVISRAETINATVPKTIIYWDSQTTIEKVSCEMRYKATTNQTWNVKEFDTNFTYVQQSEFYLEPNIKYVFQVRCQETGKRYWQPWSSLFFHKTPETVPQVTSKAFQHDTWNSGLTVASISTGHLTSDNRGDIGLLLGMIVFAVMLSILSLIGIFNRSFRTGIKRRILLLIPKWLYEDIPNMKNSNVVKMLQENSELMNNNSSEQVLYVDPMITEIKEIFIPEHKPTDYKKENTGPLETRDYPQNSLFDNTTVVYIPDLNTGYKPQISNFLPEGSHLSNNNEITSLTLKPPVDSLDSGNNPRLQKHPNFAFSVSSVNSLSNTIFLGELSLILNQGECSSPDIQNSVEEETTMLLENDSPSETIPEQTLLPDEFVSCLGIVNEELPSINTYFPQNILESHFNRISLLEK
# Test: IL23R Reporter Assay
# Assay type: cell-based
# Source text: IL-23 binding to IL-23 receptors results in the activation of the Signal Transducer and Activator of Transcription 3 (STAT3) by phosphorylation and downstream signaling events. Accordingly. the ability of the inhibitors described herein to block IL-23 action can be assessed by monitoring the status of STAT3 activation in response to IL-23. This may be accomplished in reporter cell assays or in intact cells such as peripheral blood mononuclear cells (PBMCs).
# Compounds were serially diluted in 100% (v/v) DMSO) and plated using an Echo acoustic dispenser (Labcyte) into 1536-well non-treated black assay plates (Corning #9146). […] After 5 h at 37° C., 5% CO2, 95% relative humidity, cells were placed at 20° C. and treated with BioGlo reagent (Promega) according to the Manufacturer's instructions. Luminescence was measured on a Pherastar FSX (BMG LabTech).
row,Compound,IC50
1,"CC(=O)NCCCC[C@@H]1NC(=O)[C@H](Cc2c[nH]c3c(C)cccc23)NC(=O)[C@H]([C@@H](C)O)NC(=O)[C@H](CC(N)=O)NC(=O)[C@@H](NC(C)=O)C(C)(C)SSC(C)(C)[C@@H](C(=O)N[C@@H](Cc2ccc(OCCN)cc2)C(=O)N[C@@H](Cc2ccc3ccccc3c2)C(=O)NC2(C(=O)N[C@@H](CCCCNC(=O)CCOCCOCCOCCOCCOCCOCCNC(=O)CCOCCOCCOCCOCCOCCOCCNC(=O)CC[C@H](NC(=O)CCCCCCCCCCCCCCCCC(=O)O)C(=O)O)C(=O)N[C@@H](CC(N)=O)C(=O)N[C@@H](Cc3cccnc3)C(=O)N(C)CC(N)=O)CCOCC2)NC1=O [Example 43, MeCO-Pen*-N-T-7MeW-K(Ac)-Pen*-AEF-2Nal-THP-K(PEG6PEG6gEC18OH)-N-3Pya-Sar-CONH2] (Ac-[Pen]NT[Trp(7-Me)]K(Ac)[Pen][AEF][2Nal][Thp]K([PEG6-PEG6-γGlu-C18 diacid])N[3Pal][Sar]-NH2; disulfide 1-6)",0.049 nM
2,"CCCCCCCCCCCCCCCCCC(=O)N[C@@H](CCC(=O)NCCCC[C@@H](NC(C)=O)C(=O)N[C@@H]1C(=O)N[C@@H](CC(N)=O)C(=O)N[C@@H]([C@@H](C)O)C(=O)N[C@@H](Cc2c[nH]c3c(C)cccc23)C(=O)N[C@@H](CCCCNC(C)=O)C(=O)N[C@H](C(=O)N[C@@H](Cc2ccc(OCCN)cc2)C(=O)N[C@@H](Cc2ccc3ccccc3c2)C(=O)NC2(C(=O)N[C@@H](CCCCNC(C)=O)C(=O)N[C@@H](CC(N)=O)C(=O)N[C@@H](Cc3cccnc3)C(=O)N(C)CC(N)=O)CCOCC2)C(C)(C)SSC1(C)C)C(=O)O [Example 68, MeCO-k(gEC18)-Pen*-N-T-7MeW-K(Ac)-Pen*-AEF-2Nal-THP-K(Ac)-N-3Pya-Sar-CONH2] (Ac-[dK]([γGlu-Stearoyl])[Pen]NT[Trp(7-Me)]K(Ac)[Pen][AEF][2Nal][Thp]K(Ac)N[3Pal][Sar]-NH2; disulfide 2-7)",0.037 nM
3,"CC(=O)NCCCC[C@@H]1NC(=O)[C@H](Cc2c[nH]c3c(C)cccc23)NC(=O)[C@H]([C@@H](C)O)NC(=O)[C@H](CC(N)=O)NC(=O)[C@@H](NC(C)=O)C(C)(C)SSC(C)(C)[C@@H](C(=O)N[C@@H](Cc2ccc(OCCN)cc2)C(=O)N[C@@H](Cc2ccc3ccccc3c2)C(=O)NC2(C(=O)N[C@@H](CCCCNC(=O)COCCOCCNC(=O)CCOCCOCCOCCOCCOCCOCCNC(=O)CC[C@H](NC(=O)CCCCCCCCCCCCCCCCC(=O)O)C(=O)O)C(=O)N[C@@H](CC(N)=O)C(=O)N[C@@H](Cc3cccnc3)C(=O)N(C)CC(N)=O)CCOCC2)NC1=O [Example 39, MeCO-Pen*-N-T-7MeW-K(Ac)-Pen*-AEF-2Nal-THP-K(PEG2PEG6gEC18OH)-N-3Pya-Sar-CONH2] (Ac-[Pen]NT[Trp(7-Me)]K(Ac)[Pen][AEF][2Nal][Thp]K([AEEA-PEG6-γGlu-C18 diacid])N[3Pal][Sar]-NH2; disulfide 1-6)",0.048 nM
4,"CCCCCCCCCCCCCCCC(=O)N[C@@H](CCC(=O)NCCCC[C@@H]1NC(=O)[C@@H](NC(=O)[C@@H](CCCNC(=N)N)NC(C)=O)C(C)(C)SSC(C)(C)[C@@H](C(=O)N[C@@H](Cc2ccc(OCCN)cc2)C(=O)N[C@@H](Cc2ccc3ccccc3c2)C(=O)NC2(C(=O)N[C@@H](CCCCNC(C)=O)C(=O)N[C@@H](CC(N)=O)C(=O)N[C@@H](Cc3cccnc3)C(=O)N(C)CC(N)=O)CCOCC2)NC(=O)[C@H](CCCCNC(C)=O)NC(=O)[C@H](Cc2c[nH]c3c(C)cccc23)NC(=O)[C@H]([C@@H](C)O)NC1=O)C(=O)O [Example 69, MeCO-r-Pen*-K(gEC16)-T-7MeW-K(Ac)-Pen*-AEF-2Nal-THP-K(Ac)-N-3Pya-Sar-CONH2] (Ac-[dR][Pen]K([γGlu-Palmitoyl])T[Trp(7-Me)]K(Ac)[Pen][AEF][2Nal][Thp]K(Ac)N[3Pal][Sar]-NH2; disulfide 2-7)",0.13 nM

# Second part, the compound after the results:
row,IC50,Compound
1,0.036 nM,"CC(=O)NCCCC[C@@H]1NC(=O)[C@H](Cc2c[nH]c3c(C)cccc23)NC(=O)[C@H]([C@@H](C)O)NC(=O)[C@H](CC(N)=O)NC(=O)[C@@H](NC(=O)[C@@H](CCCNC(=N)N)NC(C)=O)C(C)(C)SSC(C)(C)[C@@H](C(=O)N[C@@H](Cc2ccc(OCCN)cc2)C(=O)N[C@@H](Cc2ccc3ccccc3c2)C(=O)NC2(C(=O)N[C@@H](CCC(=O)O)C(=O)N[C@@H](CC(N)=O)C(=O)N[C@@H](Cc3cccnc3)C(=O)N(C)CC(=O)N[C@@H](CCCCNC(=O)COCCOCCNC(=O)COCCOCCNC(=O)CC[C@H](NC(=O)CCCCCCCCCCCCCCC(=O)O)C(=O)O)C(N)=O)CCOCC2)NC1=O [Example 17, MeCO-r-Pen*-N-T-7MeW-K(Ac)-Pen*-AEF-2Nal-THP-E-N-3Pya-Sar-K(PEG2PEG2gEC16OH)-CONH2] (Ac-[dR][Pen]NT[Trp(7-Me)]K(Ac)[Pen][AEF][2Nal][Thp]EN[3Pal][Sar]K([AEEA-AEEA-γGlu-C16 diacid])-NH2; disulfide 2-7)"
2,0.15 nM,"CC(=O)NCCCC[C@@H]1NC(=O)[C@H](Cc2c[nH]c3c(C)cccc23)NC(=O)[C@H]([C@@H](C)O)NC(=O)[C@H](CC(N)=O)NC(=O)[C@@H](NC(C)=O)C(C)(C)SSC(C)(C)[C@@H](C(=O)N[C@@H](Cc2ccc(OCCN)cc2)C(=O)N[C@@H](Cc2ccc3ccccc3c2)C(=O)NC2(C(=O)N[C@@H](CCCCNC(=O)COCCOCCNC(=O)COCCOCCNC(=O)CC[C@H](NC(=O)[C@H](CNC(=O)CCCCCCCCCCCCCCC(=O)O)NC(=O)CCCCCCCCCCCCCCC(=O)O)C(=O)O)C(=O)N[C@@H](CC(N)=O)C(=O)N[C@@H](Cc3cccnc3)C(=O)N(C)CC(N)=O)CCOCC2)NC1=O [Example 116, MeCO-Pen*-N-T-7MeW-K(Ac)-Pen*-AEF-2Nal-THP-K(PEG2PEG2gE-DAP(C16OH)2)-N-3Pya-Sar-CONH2]"
3,0.083 nM,"CC(=O)NCCCC[C@@H]1NC(=O)[C@H](Cc2c[nH]c3c(C)cccc23)NC(=O)[C@H]([C@@H](C)O)NC(=O)[C@H](CCCCNC(=O)COCCOCCNC(=O)COCCOCCNC(=O)CC[C@H](NC(=O)CCCCCCCCCCCCCCCCC(=O)O)C(=O)O)NC(=O)[C@@H](NC(C)=O)C(C)(C)SSC(C)(C)[C@@H](C(=O)N[C@@H](Cc2ccc(OCCN)cc2)C(=O)N[C@@H](Cc2ccc3ccccc3c2)C(=O)NC2(C(=O)N[C@@H](CCCCNC(C)=O)C(=O)N[C@@H](CC(N)=O)C(=O)N[C@@H](Cc3cccnc3)C(=O)N(C)CC(N)=O)CCOCC2)NC1=O [Example 122, MeCO-Pen*-K(PEG2PEG2gEC18OH)-T-7MeW-K(Ac)-Pen*-AEF-2Nal-THP-K(Ac)-N-3Pya-Sar-CONH2] (Ac-[Pen]K([AEEA-AEEA-γGlu-C18 diacid])T[Trp(7-Me)]K(Ac)[Pen][AEF][2Nal][Thp]K(Ac)N[3Pal][Sar]-NH2; disulfide 1-6)"
4,0.033 nM,"CC(=O)NCCCC[C@@H]1NC(=O)[C@H](Cc2c[nH]c3c(C)cccc23)NC(=O)[C@H]([C@@H](C)O)NC(=O)[C@H](CCCCNC(=O)COCCOCCNC(=O)COCCOCCNC(=O)CC[C@H](NC(=O)CCCCCCCCCCCCCCC(=O)O)C(=O)O)NC(=O)[C@@H](NC(=O)[C@@H](CCCNC(=N)N)NC(C)=O)C(C)(C)SSC(C)(C)[C@@H](C(=O)N[C@@H](Cc2ccc(OCCN)cc2)C(=O)N[C@@H](Cc2ccc3ccccc3c2)C(=O)NC2(C(=O)N[C@@H](CCC(=O)O)C(=O)N[C@@H](CC(N)=O)C(=O)N[C@@H](Cc3cccnc3)C(=O)N(C)CC(N)=O)CCOCC2)NC1=O [Example 21, MeCO-r-Pen*-K(PEG2PEG2gEC16OH)-T-7MeW-K(Ac)-Pen*-AEF-2Nal-THP-E-N-3Pya-Sar-CONH2] (Ac-[dR][Pen]K([AEEA-AEEA-γGlu-C16 diacid])T[Trp(7-Me)]K(Ac)[Pen][AEF][2Nal][Thp]EN[3Pal][Sar]-NH2; disulfide 2-7)"
